Reference: ChEMBL document CHEMBL4715760, “Balancing potency, metabolic stability and permeability in pyrrolopyrimidine-based EGFR inhibitors” (Eur J Med Chem, 2016)
Converted amounts (≈) assume the structure as drawn.

What was measured:
[1] = target: T1, Epidermal growth factor receptor (Homo sapiens, UniProt P00533); experiment: Inhibition of human EGFR using poly[Glu:Tyr] (4:1) as substrate in presence of [gamma33P]ATP by radiometric HotSpot assay
[2] = target: T1, Epidermal growth factor receptor; settings: dose 100.0 nM
Description: Inhibition of human EGFR at 100 nM using poly[Glu:Tyr] (4:1) as substrate in presence of [gamma33P]ATP by radiometric HotSpot assay relative to control

[3] = Metabolic stability in pooled human liver microsomes assessed as half life at 3 uM measured up to 45 mins in presence of NADPH by LC-MS/MS analysis; type: ADME, Microsome; settings: for half-life at 3 µM: pooled liver microsomes
[4] = Protein binding in plasma (unknown origin) assessed as unbound fraction at 5 uM by LC-MS/MS based equilibrium dialysis analysis
[5] = target: T1, Epidermal growth factor receptor; settings: dose 100.0 nM, time 1.0 hrs
[6] = target: T1, Epidermal growth factor receptor; experiment: Inhibition of EGFR (unknown origin) using Tyr 04 peptide as substrate incubated for 1 hr by Z'-LYTE assay
[7] = Metabolic stability in pooled human liver microsomes assessed as Clearance at 3 uM measured up to 45 mins in presence of NADPH by LC-MS/MS analysis; type: ADME, Microsome; settings: for microsomal CLint at 3 µM: pooled liver microsomes, read-out: CLH
[8] = target: Voltage-gated inwardly rectifying potassium channel KCNH2 (Homo sapiens, UniProt Q12809); experiment: Inhibition of human ERG expressed in CHO cells at -80 mV holding potential by IonWorks patch-clamp electrophysiology assay
[9] = physchem; settings: phosphate buffered saline, pH 7.4
[10] = Apparent permeability from apical to basolateral side in human Caco2 cells at 10 uM measured for 120 mins by LC-MS/MS analysis; settings: for Papp: caco-2, 2 h, 10 µM; for Papp A→B at 2 h, 10 µM: Caco-2
[11] = Apparent permeability from basolateral to apical side in human Caco2 cells at 10 uM measured for 120 mins by LC-MS/MS analysis; settings: for Papp: caco-2, 2 h, 10 µM; for Papp B→A at 2 h, 10 µM: Caco-2
[12] = Efflux ratio of apparent permeability across basolateral to apical side over apical to basolateral side in human Caco2 cells at 10 uM measured for 120 mins by LC-MS/MS analysis
[13] = test system: A-431; experiment: Antiproliferative activity against human A431 cells; type: functional, cell-based
[14] = test system: BaF3; experiment: Antiproliferative activity against mouse Ba/F3 cells expressing EGFR-L858R mutant assessed as inhibition of cell growth incubated for 48 hrs by XTT assay; type: functional, cell-based; settings: BaF3, 48 h

T1 sequence (P00533 whole entry): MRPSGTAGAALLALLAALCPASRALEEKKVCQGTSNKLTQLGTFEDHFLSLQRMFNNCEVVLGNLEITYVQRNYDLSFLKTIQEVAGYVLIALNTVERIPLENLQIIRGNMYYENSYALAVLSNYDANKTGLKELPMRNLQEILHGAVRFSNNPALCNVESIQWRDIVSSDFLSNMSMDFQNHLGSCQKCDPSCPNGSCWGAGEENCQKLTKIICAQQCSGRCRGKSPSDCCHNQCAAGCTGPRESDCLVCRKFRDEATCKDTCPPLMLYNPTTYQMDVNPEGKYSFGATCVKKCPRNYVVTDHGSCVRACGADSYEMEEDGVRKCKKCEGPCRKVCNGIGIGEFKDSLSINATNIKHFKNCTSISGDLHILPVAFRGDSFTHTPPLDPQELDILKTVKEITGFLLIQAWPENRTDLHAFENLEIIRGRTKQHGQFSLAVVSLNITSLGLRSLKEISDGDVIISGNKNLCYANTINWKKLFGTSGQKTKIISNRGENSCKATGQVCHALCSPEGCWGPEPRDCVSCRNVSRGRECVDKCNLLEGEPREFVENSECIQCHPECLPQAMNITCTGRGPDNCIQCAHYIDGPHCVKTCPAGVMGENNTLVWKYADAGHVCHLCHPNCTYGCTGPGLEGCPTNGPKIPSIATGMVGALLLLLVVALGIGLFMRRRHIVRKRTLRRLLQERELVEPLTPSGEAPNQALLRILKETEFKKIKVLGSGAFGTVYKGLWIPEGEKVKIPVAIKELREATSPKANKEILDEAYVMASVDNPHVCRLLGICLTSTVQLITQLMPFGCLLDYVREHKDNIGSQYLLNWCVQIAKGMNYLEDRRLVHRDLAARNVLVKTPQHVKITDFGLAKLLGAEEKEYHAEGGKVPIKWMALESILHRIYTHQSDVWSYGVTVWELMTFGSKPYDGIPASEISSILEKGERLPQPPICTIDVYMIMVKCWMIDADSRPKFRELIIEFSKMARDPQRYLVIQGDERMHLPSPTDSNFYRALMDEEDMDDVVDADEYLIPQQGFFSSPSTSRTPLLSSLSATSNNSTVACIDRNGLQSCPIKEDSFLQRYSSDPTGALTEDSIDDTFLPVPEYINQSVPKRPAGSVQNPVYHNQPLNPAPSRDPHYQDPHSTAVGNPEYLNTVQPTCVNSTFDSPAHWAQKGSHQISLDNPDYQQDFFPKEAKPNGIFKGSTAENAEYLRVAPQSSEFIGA
Chain of Voltage-gated inwardly rectifying potassium channel KCNH2 (Q12809 whole entry): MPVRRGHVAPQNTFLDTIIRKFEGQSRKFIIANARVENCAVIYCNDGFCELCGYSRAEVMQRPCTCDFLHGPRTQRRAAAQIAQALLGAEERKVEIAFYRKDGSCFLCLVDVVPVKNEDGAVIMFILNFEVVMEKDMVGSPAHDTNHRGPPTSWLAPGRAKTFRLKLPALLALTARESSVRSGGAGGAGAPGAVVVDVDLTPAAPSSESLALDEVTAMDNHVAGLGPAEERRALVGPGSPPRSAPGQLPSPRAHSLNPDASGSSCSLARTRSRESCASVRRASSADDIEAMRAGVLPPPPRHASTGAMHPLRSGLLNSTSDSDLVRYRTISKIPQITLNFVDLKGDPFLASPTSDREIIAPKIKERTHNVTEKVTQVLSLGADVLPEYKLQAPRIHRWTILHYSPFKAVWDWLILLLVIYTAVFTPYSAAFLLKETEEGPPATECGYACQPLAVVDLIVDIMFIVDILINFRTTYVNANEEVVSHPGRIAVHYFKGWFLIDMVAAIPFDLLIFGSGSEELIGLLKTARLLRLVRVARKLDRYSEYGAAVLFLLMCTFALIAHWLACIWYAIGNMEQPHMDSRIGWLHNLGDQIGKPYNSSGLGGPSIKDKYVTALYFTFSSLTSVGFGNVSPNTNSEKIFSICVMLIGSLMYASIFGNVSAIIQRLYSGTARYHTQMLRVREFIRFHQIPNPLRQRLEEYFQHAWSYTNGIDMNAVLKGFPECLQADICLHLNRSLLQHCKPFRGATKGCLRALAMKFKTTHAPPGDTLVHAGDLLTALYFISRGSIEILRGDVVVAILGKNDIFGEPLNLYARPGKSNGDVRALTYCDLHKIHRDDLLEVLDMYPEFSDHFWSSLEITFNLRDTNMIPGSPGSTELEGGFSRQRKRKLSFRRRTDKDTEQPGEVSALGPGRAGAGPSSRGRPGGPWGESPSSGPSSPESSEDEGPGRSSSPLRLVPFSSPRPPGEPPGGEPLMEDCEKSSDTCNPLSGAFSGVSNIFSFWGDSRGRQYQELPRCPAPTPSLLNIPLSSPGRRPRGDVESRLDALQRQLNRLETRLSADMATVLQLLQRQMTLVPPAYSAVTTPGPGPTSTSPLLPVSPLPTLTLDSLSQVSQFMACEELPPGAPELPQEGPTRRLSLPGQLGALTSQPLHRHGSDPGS

Structure (SMILES)	IC50 [1] [nM]	inhibition [2] [%]	other results
Cn1c(-c2ccccc2)cc2c(N[C@H](CO)c3ccccc3)ncnc21	900	20	–
CC(C)Oc1ccccc1-c1cc2c(N[C@H](C)c3ccccc3)ncnc2[nH]1	0.6	98	–
C[C@@H](Nc1ncnc2[nH]c(-c3ccc(C(N)=O)cc3)cc12)c1ccccc1	0.8	97	–
OCc1ccc(-c2cc3c(N[C@H](CO)c4ccccc4)ncnc3[nH]2)cc1	–	–	half-life at 3 µM [3]: 4.43 h; fraction unbound at 5 µM [4]: 0.11; inhibition [5]: 98%; IC50 [6]: 0.2 nM; microsomal CLint at 3 µM [7]: 5.21 µL/min/mg
CS(=O)(=O)c1ccc(-c2cc3c(N[C@H](CO)c4ccccc4)ncnc3[nH]2)cc1	0.8	96	–
COc1cc(NC(C)=O)ccc1-c1cc2c(N[C@H](CO)c3ccccc3)ncnc2[nH]1	0.8	98	–
COc1cc(NS(C)(=O)=O)ccc1-c1cc2c(N[C@H](C)c3ccccc3)ncnc2[nH]1	0.7	100	–
COc1cc(CO)ccc1-c1cc2c(N[C@H](CO)c3ccccc3)ncnc2[nH]1	–	–	half-life at 3 µM [3]: 1.83 h; IC50 [8]: > 25000 nM; fraction unbound at 5 µM [4]: 0.08; solubility kinetic at 2 h [9]: > 100 µM; Papp [10]: 2.98 10^-6 cm/s; Papp [11]: 50.84 10^-6 cm/s; microsomal CLint at 3 µM [7]: 12.6 µL/min/mg
COC[C@@H](Nc1ncnc2[nH]c(-c3ccccc3OC(F)F)cc12)c1ccccc1	1.3	96	–
C[C@@H](Nc1ncnc2[nH]c(-c3ccccc3OC(F)(F)F)cc12)c1ccccc1	4.3	92	–
C[C@@H](Nc1ncnc2[nH]c(-c3ccc(NS(C)(=O)=O)cc3)cc12)c1ccccc1	0.3	98	half-life at 3 µM [3]: 1.09 h; solubility kinetic at 2 h [9]: 37.5 µM (≈ 15.3 µg/mL); Papp [10]: 0.03 10^-6 cm/s; Papp [11]: 26.9 10^-6 cm/s; Ratio ([12]; caco-2, 2 h, 10 µM): 23.7; microsomal CLint at 3 µM [7]: 21.2 µL/min/mg
NC(=O)Cc1cccc(-c2cc3c(N[C@H](CO)c4ccccc4)ncnc3[nH]2)c1	0.7	100	–
C[C@@H](Nc1ncnc2[nH]c(-c3ccncc3)cc12)c1ccccc1	0.6	97	–
COc1cc(CN(C)CCN(C)C)ccc1-c1cc2c(N[C@H](CO)c3ccccc3)ncnc2[nH]1	0.1	99	IC50 [13]: > 10000 nM; IC50 [14]: 77 nM
CC(=O)Nc1ccc(-c2cc3c(N[C@H](C)c4ccccc4)ncnc3[nH]2)cc1	0.7	97	–
COc1cc(C(N)=O)ccc1-c1cc2c(N[C@H](CO)c3ccccc3)ncnc2[nH]1	0.5	99	–
C[C@@H](Nc1ncnc2[nH]c(-c3ccccc3OC(F)F)cc12)c1ccccc1	0.8	98	half-life at 3 µM [3]: 0.412 h; microsomal CLint at 3 µM [7]: 56.2 µL/min/mg
CCOc1ccccc1-c1cc2c(N[C@H](C)c3ccccc3)ncnc2[nH]1	0.3	99	–
COc1cc(CNCCN(C)C)ccc1-c1cc2c(N[C@H](C)c3ccccc3)ncnc2[nH]1	0.1	99	IC50 [13]: 5000 nM; IC50 [14]: 90 nM
CN(C)CCNCc1cc(-c2cc3c(N[C@H](CO)c4ccccc4)ncnc3[nH]2)ccc1F	1.2	96	t1/2 ([3]; microsomes, 0.75 h, 3 µM): 1.72 h; solubility kinetic at 2 h [9]: > 100 µM; Papp A→B at 2 h, 10 µM [10]: 1.6 ×10⁻⁶ cm/s; Papp B→A at 2 h, 10 µM [11]: 9.6 ×10⁻⁶ cm/s; efflux ratio at 2 h, 10 µM ([12]; Caco-2): 5.9; CLH ([7]; microsomes, 0.75 h, 3 µM): 2.79 µL/min/mg
COc1cc(CNCCN2CCNCC2)ccc1-c1cc2c(N[C@H](CO)c3ccccc3)ncnc2[nH]1	0.1	98	IC50 [13]: 6200 nM; IC50 [14]: 396 nM

Structure (SMILES)	IC50 [1] [nM]	inhibition [2] [%]	other results
OC[C@@H](Nc1ncnc2[nH]c(-c3cccnc3)cc12)c1ccccc1	2.2	92	–
COc1cc(CNCCN(C)C)ccc1-c1cc2c(N[C@H](CO)c3ccccc3)ncnc2[nH]1	0.3	100	–
CN(C)CCNCc1ccc(-c2cc3c(N[C@H](CO)c4ccccc4)ncnc3[nH]2)cc1	0.3	97	–
COc1cnccc1-c1cc2c(N[C@H](CO)c3ccccc3)ncnc2[nH]1	0.6	97	–
C[C@@H](Nc1ncnc2[nH]c(-c3ccc(S(C)(=O)=O)cc3)cc12)c1ccccc1	0.4	97	–
OC[C@@H](Nc1ncnc2[nH]c(-c3ccncc3)cc12)c1ccccc1	2	94	–
C[C@@H](Nc1ncnc2[nH]c(-c3ccc(S(N)(=O)=O)cc3)cc12)c1ccccc1	0.7	96	–
COc1cc(NS(C)(=O)=O)ccc1-c1cc2c(N[C@H](CO)c3ccccc3)ncnc2[nH]1	0.3	100	–
COc1cc(CNCCS(C)(=O)=O)ccc1-c1cc2c(N[C@H](CO)c3ccccc3)ncnc2[nH]1	0.4	100	–
CS(=O)(=O)Nc1ccc(-c2cc3c(N[C@H](CO)c4ccccc4)ncnc3[nH]2)cc1	–	–	half-life at 3 µM [3]: 2.27 h; solubility kinetic at 2 h [9]: > 100 µM; Papp A→B at 2 h, 10 µM [10]: 0.02 ×10⁻⁶ cm/s; Papp B→A at 2 h, 10 µM [11]: 29.2 ×10⁻⁶ cm/s; microsomal CLint at 3 µM [7]: 10.2 µL/min/mg
COC[C@@H](Nc1ncnc2[nH]c(-c3ccc(CO)cc3OC)cc12)c1ccccc1	0.5	98	–
OCc1ccc(-c2cc3c(N[C@H](CO)c4ccccc4)ncnc3[nH]2)cc1F	0.6	97	IC50 [13]: 5800 nM; IC50 [14]: 158 nM
COc1cc(CNCCN2CCOCC2)ccc1-c1cc2c(N[C@H](CO)c3ccccc3)ncnc2[nH]1	0.1	97	–
C[C@@H](Nc1ncnc2[nH]c(-c3cccc(C(N)=O)c3)cc12)c1ccccc1	1.4	95	–
COc1cc(C(N)=O)ccc1-c1cc2c(N[C@H](C)c3ccccc3)ncnc2[nH]1	0.4	98	–
[2H]C([2H])([2H])Oc1ccccc1-c1cc2c(N[C@H](CO)c3ccccc3)ncnc2[nH]1	0.4	–	–
COc1cc(CNCCN2CCCCC2)ccc1-c1cc2c(N[C@H](CO)c3ccccc3)ncnc2[nH]1	0.1	99	–
COc1cccc(OC)c1-c1cc2c(N[C@H](C)c3ccccc3)ncnc2[nH]1	0.6	97	–
CCOc1ccccc1-c1cc2c(N[C@H](CCO)c3ccccc3)ncnc2[nH]1	0.1	100	IC50 [13]: 4900 nM; IC50 [14]: 99 nM
OCc1cc(-c2cc3c(N[C@H](CO)c4ccccc4)ncnc3[nH]2)ccc1F	1.6	96	–
